Reference: patent US7223759B2, “Antibacterial 3,5-diaminopiperidine-substituted aromatic and heteroaromatic compounds” (Anadys Pharmaceuticals, Inc., priority 2003, dated 2007)

Each molecule was assayed on Escherichia coli (ATCC25922) or Staphylococcus aureus (ATCC25923) (assay: Antibacterial MIC, microdilution method in Mueller-Hinton medium). Details: Escherichia coli, 18 h, MIC in E. coli or S. aureus; two-fold serial dilutions 64 to 0.5 μg/ml in duplicate; 18 hours of incubation at 35° C.; read-out: Potency (MIC).
Format: cell-based
Summary of the method: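 Read after 18 h incubation at 35° C, MIC is the lowest compound level that blocked growth. Compounds were tested in duplicate over 64–0.5 μg/ml two-fold dilutions using Mueller-Hinton microdilution per NCCLS standard.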

MIC	Molecule
> 64 µg/mL	Cl.NC(=O)c1ccc(Nc2nc(N3C[C@H](N)C[C@H](N)C3)nc(N3C[C@H](N)C[C@H](N)C3)n2)nc1 [N-(5-carbamoyl-pyridin-2-yl)-4,6-Bis-((3R,5S)-3,5-diamino-piperidin-1-yl)-[1,3,5]triazine-2-amine]
> 64 µg/mL	N[C@@H]1CC(c2nc(NCc3ccco3)nc(N3C[C@H](N)C[C@H](N)C3)n2)C[C@H](N)C1 (stereo partly drawn) [N-furan-2-ylmethyl-44,6-Bis-((3R,5S)-3,5-diamino-piperidin-1-yl)-[1,3,5]triazine-2-amine]
< 64 µg/mL	Cc1cccc(NC(=O)c2ccc(Nc3nc(N4CCCCC4)nc(N4CCCCC4)n3)cc2O)n1.Cl [N-[3-hydroxy-4-(6-methyl-pyridin-2-ylcarbamoyl)-phenyl]-4,6-Bis-((3R,5S)-3,5-diamino-piperidin-1-yl)-[1,3,5]triaazine-2-amine]
< 64 µg/mL	Cl.O=C(CC(O)c1ccc(Nc2nc(N3CCCCC3)nc(N3CCCCC3)n2)cc1)Nc1ccccc1C(F)(F)F [N-{4-[1-hydroxy-2-(2-trifluoromethyl-phenylcarbazmoyl)-ethyl]-phenyl}-4,6-Bis-((3R,5S)-3,5-diamino-piperidin-1-yl)-[1,3,5]triazine-2-amine]
> 64 µg/mL	Cl.O=S(=O)(c1cc(Nc2nc(N3CCCCC3)nc(N3CCCCC3)n2)ccc1N1CCOCC1)N1CCOCC1 [N-[3-morpholine-4-sulfonyl)-4-morpholin-4-yl-phenyl]-4,6-Bis-((3R,5S)-3,5-diamino-piperidin-1-yl)-[1,3,5]triazine-2-amine]
> 64 µg/mL	N[C@@H]1C[C@H](N)CN(c2nc(Nc3ccc(C(=O)Nc4ccccc4)cc3)nc(N3C[C@H](N)C[C@H](N)C3)n2)C1 [N-(4-phenylcarbamoyl-phenyl)-4,6-Bis-((3R,5S)-3,5-diamino-piperidin-1-yl)-[1,3,5]triazine-2-amine]
< 64 µg/mL	Cl.O=C(Oc1ccccc1)c1ccc(Nc2cc(N3CCCCC3)cc(N3CCCCC3)c2)cc1O [4-[4-((3S,5R)-3,5-Diamino-piperidin-1-yl)-6-((R)-3-hydroxy-piperidin-1-yl)-[1,3,5]triazin-2-ylamino]-2-hydroxy-benzoicacidphhenylester]
> 64 µg/mL	Cc1cc(Cl)ccc1CNc1nc(N2CCCCC2)nc(N2CCCCC2)n1.Cl [N-(4-chloro-2-methyl-benzyl)-44,6-Bis-((3R,5S)-3,5-diamino-piperidin-1-yl)-[1,3,5]triazine-2-amine]
< 64 µg/mL	Cl.NC1CCN(c2nc(Nc3ccc(Cl)c(Cl)c3)nc(N3C[C@H](N)C[C@H](N)C3)n2)CC1 [(3R,5S)-1-[4-(4-Amino-piperidin-1-yl)-6-(3,4-dichloro-phenylamino)-[1,3,5]triazin-2-yl]-piperidine-3,5-diamine]
< 64 µg/mL	Cl.N[C@@H]1C[C@H](N)CN(c2nc(Nc3ccccc3-n3cccc3)nc(N3C[C@H](N)C[C@H](N)C3)n2)C1 [N-(2-pyrrol-1-yl-phenyl)-4,6-Bis-((3R,5S)-3,5-diamino-piperidin-1-yl)-[1,3,5]triazine-2-amine]
> 64 µg/mL	Cl.N[C@@H]1C[C@H](N)CN(c2nc(Nc3ccon3)nc(N3C[C@H](N)C[C@H](N)C3)n2)C1 [N-isoxazol-3-yl-4,6-Bis-((3R,5S)-3,5-diamino-piperidin-1-yl)-[1,3,5]triazine-2-amine]

Molecule	MIC
N[C@@H]1C[C@H](N)CN(c2nc(Nc3ccc(O)c4ncccc34)nc(N3C[C@H](N)C[C@H](N)C3)n2)C1 [N-(8-hydroxy-quinolin-5-yl)-4,6-Bis-((3R,5S)-3,5-diamino-piperidin-1-yl)-[1,3,5]triazine-2-amine]	< 64 µg/mL
N[C@@H]1C[C@H](N)CN(c2cc(N3C[C@H](N)C[C@H](N)C3)cc(N(c3ccc([N+](=O)[O-])cc3)c3ccc([N+](=O)[O-])cc3)c2)C1 [(3,5-Bis-((3R,5S)-3,5-diamino-piperidin-1-yl)-phenyl)-bis-(4-nitro-phenyl)-amine]	< 64 µg/mL

Same assay, conditions: Escherichia coli, 18 h, read-out: Potency (MIC)

Molecule	MIC
NCCNc1nc(Nc2ccc3c(c2)-c2ccccc2C3=O)nc(N2C[C@H](N)C[C@H](N)C2)n1 [3-[4-(2-Amino-ethylamino)-6-((3R,5S)-3,5-diamino-piperidin-1-yl)-[1,3,5]triazin-2-ylamino]-fluoren-9-one]	> 64 µg/mL
N[C@@H]1C[C@H](N)CN(c2nc(Nc3ccc(NS(=O)(=O)c4ccccc4)c(O)c3)nc(N3C[C@H](N)C[C@H](N)C3)n2)C1 [N-(4-benzenesulfonylamino-3-hydroxy-phenyl)-4,6-Bis-((3R,5S)-3,5-diamino-piperidin-1-yl)-[1,3,5]triazine-2-amine]	< 64 µg/mL
N[C@@H]1C[C@H](N)CN(c2nc(Nc3ccc(NC(=O)c4ccc(Cl)cc4)c(O)c3)nc(N3CCN(CC(=O)N4CCOCC4)CC3)n2)C1 [4-Chloro-N-(4-{4-((3S,5R)-3,5-diamino-piperidin-1-yl)-6-[4-(2-morpholin-4-yl-2-oxo-ethyl)-piperazin-1-yl]-[1,3,5]triazin-2-ylamino}-2-hydroxy-phenyl)-benzamide]	> 64 µg/mL
CCn1c2ccccc2c2cc(Nc3nc(N4C[C@H](N)C[C@H](N)C4)nc(N4C[C@H](N)C[C@H](N)C4)n3)ccc21 [N-(9-ethyl-9H-carbazol-3-yl)-4,6-Bis-((3R,5S)-3,5-diamino-piperidin-1-yl)-[1,3,5]triazine-2-amine]	< 64 µg/mL
N[C@@H]1C[C@H](N)CN(c2nc(Nc3ccc(O)c4ncccc34)nc(N3C[C@H](N)C[C@H](N)C3)n2)C1 [N-(8-hydroxy-quinolin-5-yl)-4,6-Bis-((3R,5S)-3,5-diamino-piperidin-1-yl)-[1,3,5]triazine-2-amine]	< 16 µg/mL
CC(=O)Nc1ccc(Nc2nc(N3C[C@H](N)C[C@H](N)C3)nc(N3C[C@H](N)C[C@H](N)C3)n2)cc1 [drawing 485, N-(4-acetylamino-phenyl)-4,6-Bis-((3R,5S)-3,5-diamino-piperidin-1-yl)-[1,3,5]triazine-2-amine]	< 64 µg/mL
Nc1ccc(Nc2nc(N3C[C@H](N)C[C@H](N)C3)nc(N3C[C@H](N)C[C@H](N)C3)n2)cc1OCc1ccccc1 [N-(4-amino-3-benzyloxy-phenyl)-4,6-Bis-((3R,5S)-3,5-diamino-piperidin-1-yl)-[1,3,5]triazine-2-amine]	> 64 µg/mL
CCCCCC(CC)C(=O)Nc1ccc(S(=O)(=O)Nc2ccc(Nc3nc(N4C[C@H](N)C[C@H](N)C4)nc(N4C[C@H](N)C[C@H](N)C4)n3)cc2O)cc1 (stereo partly drawn) [N-{4-[4-(2-ethyl-heptanoylamino)-benzenesulfonylamino]-3-hydroxy-phenyl}-4,6-Bis-((3R,5S)-3,5-diamino-piperidin-1-yl)-[1,3,5]triazine-2-amine]	< 16 µg/mL
N[C@@H]1C[C@H](N)CN(c2nc3nc(Nc4ccc(NC(=O)c5ccc6ccccc6c5O)cc4)nc(N4C[C@H](N)C[C@H](N)C4)c3[nH]2)C1 [1-Hydroxy-naphthalene-2-carboxylicacid {4-[6-((3R,5S)-3,5-diamino-piperidin-1-yl)-8-((3S,5R)-3,5-diamino-piperidin-1-yl)-7H-purin-2-ylamino]-phenyl}-amide]	< 16 µg/mL
Cc1c(Cl)cccc1CNc1nc(N2C[C@H](N)C[C@H](N)C2)nc(N2C[C@H](N)C[C@H](N)C2)n1 [N-(3-chloro-2-methyl-benzyl)-4,6-Bis-((3R,5S)-3,5-diamino-piperidin-1-yl)-[1,3,5]triazine-2-amine]	> 64 µg/mL
Cc1cc(Nc2nc(N3C[C@H](N)C[C@H](N)C3)nc(N3C[C@H](N)C[C@H](N)C3)n2)ccc1NC(=O)c1cccc(C)c1O [N-[4-(2-hydroxy-3-methyl-benzoylamino)-3-methyl-phenyl]-4,6-Bis-((3R,5S)-3,5-diamino-piperidin-1-yl)-[1,3,5]triazine-2-amine]	< 64 µg/mL
Cc1ccc(S(=O)(=O)N(Cc2ccccc2)c2ccc(Nc3nc(N4C[C@H](N)C[C@H](N)C4)nc(N4C[C@@H](N)C[C@H]4CO)n3)cc2O)cc1 [N-{4-[4-((2S,4S)-4-Amino-2-hydroxymethyl-pyrrolidin-1-yl)-6-((3R,5S)-3,5-diamino-piperidin-1-yl)-[1,3,5]triazin-2-ylamino]-2-hydroxy-phenyl}-N-benzyl-4-methyl-benzenesulfonamide]	< 64 µg/mL
Cc1ccc(C(=O)Nc2ccc(Nc3nc(N4C[C@H](N)C[C@H](N)C4)nc(N4C[C@H](CN)C[C@H](CN)C4)n3)cc2O)cc1 [N-{4-[4-((3S,5R)-3,5-Bis-(aminomethyl)-piperidin-1-yl)-6-((3R,5S)-3,5-diamino-piperidin-1-yl)-[1,3,5]triazin-ylamino]-2-hydroxy-phenyl}-4-methyl-benzamide]	< 64 µg/mL
Cc1ccc(S(=O)(=O)N(Cc2ccccc2)c2ccc(NC(=O)c3ccc(Nc4nc(N5C[C@H](N)C[C@H](N)C5)nc(N5C[C@H](N)C[C@H](N)C5)n4)cc3O)cc2O)cc1 [N-(4-{4-[benzyl-(toluene-4-sulfonyl)-amino]-3-hydroxy-phenylcarbamoyl)-3-hydroxy-phenyl)-4,6-Bis-((3R,5S)-3,5-diamino-piperidin-1-yl)-[1,3,5]triazine-2-amine]	< 16 µg/mL
NC[C@@H]1C[C@H](CN)CN(c2nc(Nc3ccc(S(=O)(=O)Nc4ccc5cn[nH]c5c4)cc3)nc(N3C[C@H](N)C[C@H](N)C3)n2)C1 [4-[4-((3R,5S)-3,5-Bis-(aminomethyl)-piperidin-1-yl)-6-((3R,5S)-3,5-diamino-piperidin-1-yl)-[1,3,5]triazin-2-ylamino]-N-(1H-indazol-6-yl)-benzenesulfonamide]	> 64 µg/mL
N[C@@H]1C[C@H](N)CN(c2nc(Nc3ccc(NC(=O)C(=O)c4c[nH]c5ccccc45)c(O)c3)nc(N3C[C@H](N)C[C@H](N)C3)n2)C1 [N-{3-hydroxy-4-[2-(1H-indol-3-yl)-2-oxo-acetylamino]-phenyl}-4,6-Bis-((3R,5S)-3,5-diamino-piperidin-1-yl)-[1,3,5]triazine-2-amine]	< 16 µg/mL

Same assay, conditions: MIC in E. coli or S. aureus; two-fold serial dilutions 64 to 0.5 μg/ml in duplicate; 18 hours of incubation at 35° C.

Molecule	Potency (MIC)
Cc1ccc(S(=O)(=O)N(Cc2ccccc2)c2ccc(Nc3nc(N4C[C@H](N)C[C@H](N)C4)nc(N4CC[C@H](O)[C@@H]4CN)n3)c(O)c2)cc1	+ (+ means MIC<64 μg/ml in E. coli or S. aureus)
7-[4-((2S,4S)-4-Amino-2-aminomethyl-pyrrolidin-11-yl)-6-((3R,5S)-3,5-diamino-piperidin-1-yl)-[1,3,5]triazin-2-ylamino]-4-methyl-chromen-2-one	− (− means MIC>64 μg/ml in E. coli or S. aureus)
